Data reported in PMC11677424, “Early-Stage IM Treatment with the Host-Derived Immunostimulant CPDI-02 Increases Curative Protection of Healthy Outbred Mice Against Subcutaneous Infection with Community-Acquired Methicillin-Resistant Staphylococcus aureus USA300” (Pharmaceutics, 2024).

Tested on: healthy male and female outbred CD-1 mice
Assay: IM dose escalation in healthy CD-1 mice
Type: in vivo
Procedure: Twenty-four CD-1 mice, approximately 4 weeks old, were randomized by weight and sex into four cohorts and then intramuscularly administered either vehicle alone (filter-sterilized 0.2 μm endotoxin-free PBS) or vehicle containing CPDI-02 twice a week over 4 weeks (eight doses total). CPDI-02 doses began at 15 mg/kg and subsequent doses were increased by a conventional modified Fibonacci scheme (increase over previous dose: 100%, 67%, 50%, 40%, 30%, 33%, 33%) to a final dose of 225 mg/kg. Mice were weighed prior to the study and prior to each dose administration. On each dose administration date, mice were assigned a Pain and Distress Assessment Score (Table S1). Four days after the last treatment, mice were euthanized, whole blood was collected for complete blood count (CBC) with differential (VetScan® HM5 Hematology Analyzer), and the thymus, heart, lungs, brain, liver, spleen, kidneys, femur bone marrow, popliteal lymph nodes, Peyer’s patches, and injection site muscle (left caudal thigh muscle) were collected. Collected tissues were fixed in 10% formalin for 48 h and then embedded in paraffin. Before embedment in paraffin, femur bone marrow samples underwent decalcification by shaking in 10% formic acid for 8 h. Paraffin samples were cut into sections and underwent a Hematoxylin and Eosin (H&E) stain, then analyzed for signs of inflammation and other tissue abnormalities utilizing a Nikon Eclipse E600 at 40× magnification, and imaged using a Lumenera Infinity 2 Microscope Camera.

## CSCC[C@H](NC(=O)[C@H](CC(=O)O)NC(=O)[C@H](CCCCN)NC(=O)[C@H](Cc1ccccc1)NC(=O)[C@H](CO)NC(=O)[C@@H](N)Cc1ccc(O)cc1)C(=O)N1CCC[C@H]1C(=O)N(C)[C@@H](CC(C)C)C(=O)N[C@H](C)C(=O)N[C@@H](CCCNC(=N)N)C(=O)O [CPDI-02]
Male and female CD-1 mice, IM twice a week, 15 up to 225 mg/kg over 28 days, 8 doses, n = 6
  weight gain or survival: did not affect
Male mice, four days after final dose, H&E, vehicle none
  mice with signs of inflammation around the injection site: 50%
mouse, in vivo
  mice with signs of inflammation around the injection site: 83%
  signs of inflammation in thymus, heart, lungs, brain, liver, spleen, kidneys, femur bone marrow, popliteal lymph nodes, Peyer's patches: did not increase
mouse, in vivo, 225 mg/kg
  platecrit vs vehicle alone: decreased
  platelets vs vehicle alone: decreased
